Where “and” joins values, the source holds several entries; their conditions need not be identical. Identical values can stand only once. Like-named read-outs stand apart in the source and are kept apart here.
Tests used:
OATP2B1 (SLCO2B1) = molecular target: T1, OATP2B1 (SLCO2B1) (Homo sapiens, UniProt O94956)
T1 sequence (O94956 1-709): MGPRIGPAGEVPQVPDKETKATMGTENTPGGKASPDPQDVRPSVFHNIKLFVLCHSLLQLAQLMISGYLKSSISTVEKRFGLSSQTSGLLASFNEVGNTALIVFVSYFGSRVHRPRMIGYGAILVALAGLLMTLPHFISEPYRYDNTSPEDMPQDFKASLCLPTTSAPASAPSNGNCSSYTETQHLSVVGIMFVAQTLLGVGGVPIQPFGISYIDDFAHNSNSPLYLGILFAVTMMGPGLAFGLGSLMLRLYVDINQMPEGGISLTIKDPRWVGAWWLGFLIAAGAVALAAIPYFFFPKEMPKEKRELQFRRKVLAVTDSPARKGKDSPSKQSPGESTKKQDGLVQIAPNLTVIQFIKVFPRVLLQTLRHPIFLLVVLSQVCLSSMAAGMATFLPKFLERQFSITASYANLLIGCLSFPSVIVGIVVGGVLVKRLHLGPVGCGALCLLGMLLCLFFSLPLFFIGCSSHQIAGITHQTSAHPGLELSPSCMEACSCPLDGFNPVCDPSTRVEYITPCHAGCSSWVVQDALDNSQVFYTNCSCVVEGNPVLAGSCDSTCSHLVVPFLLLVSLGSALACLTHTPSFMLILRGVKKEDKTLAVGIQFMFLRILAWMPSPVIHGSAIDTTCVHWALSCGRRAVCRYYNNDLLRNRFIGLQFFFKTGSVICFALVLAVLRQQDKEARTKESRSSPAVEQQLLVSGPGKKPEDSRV
Procedure: OATP overexpression was confirmed by Western blotting. Functionality of the OATPs was verified by [^3H]estrone-3-sulfate uptake experiments. A431 cells transfected with the empty vector were used as a negative control. All cell lines were cultured in Dulbecco's modified eagle medium supplemented with 10% fetal bovine serum, 2 mM L-glutamine, 100 units/mL penicillin and 100 µg/mL streptomycin. […] On the day of the experiment, growth medium was aspired and cells were washed with pre-warmed transport buffer (Hank's balanced salt solution supplemented with 10 mM N-2-hydroxyethylpiperazine-N-2-ethane sulfonic acid). […] Then the drug solutions were removed and cells were washed with pre-warmed transport buffer. […] For time dependency experiments, pre-warmed transport buffer was added and cells were incubated for 30 min. […] For concentration dependency experiments, pre-warmed transport buffer was added and cells were incubated for 30 min. […] In all experiments, cell count was determined on separate 24-well tissue culture plates before or after each experiment. In all experiments, radiotracer solutions were aspired following incubation and cells were washed twice with ice-cold transport buffer. […] Each inhibition experiment was performed 2 times with 3 technical replicates each and radioactivity in cells was corrected for radioactive decay, normalized to 10^6 cells and expressed as percent of vector control (% control). The time dependency experiment was performed once with 3 technical replicates and radioactivity in cells was corrected for radioactive decay and expressed as percent of applied dose per 10^6 cells (%AD/10^6 cells). The concentration dependency experiment was performed once with 3 technical replicates and radioactivity in cells was corrected for radioactive decay. Kinetic parameters were determined using a previously described method.^2 In brief, cellular radioactivity uptake was converted into units of pmol/min/10^6 cells. OATP2B1-specific uptake of erlotinib was determined by subtracting the uptake into cells transfected with the empty vector from the uptake into cells transfected with OATP2B1. The following equation was used to obtain kinetic parameters:
where v is the uptake velocity of erlotinib (pmol/min/10^6 cells), S is the erlotinib concentration in the transport buffer (µM), Km is the Michaelis constant (µM), Vmax is the maximum uptake velocity (pmol/min/10^6 cells), and Pdif is the non-saturable uptake clearance (µL/min/10^6 cells). Curve fitting was performed by the non-linear regression method with a modified Michaelis-Menten model according to equation 1 using Prism 6.0 software (GraphPad Software).

OATP1B3 (SLCO1B3) = molecular target: T2, OATP1B3 (SLCO1B3) (Homo sapiens, UniProt Q9NPD5); details: erlotinib 1 μM, cyclosporine A 10 μM, rifampicin 100 μM; 5 min
T2 sequence (Q9NPD5 1-702): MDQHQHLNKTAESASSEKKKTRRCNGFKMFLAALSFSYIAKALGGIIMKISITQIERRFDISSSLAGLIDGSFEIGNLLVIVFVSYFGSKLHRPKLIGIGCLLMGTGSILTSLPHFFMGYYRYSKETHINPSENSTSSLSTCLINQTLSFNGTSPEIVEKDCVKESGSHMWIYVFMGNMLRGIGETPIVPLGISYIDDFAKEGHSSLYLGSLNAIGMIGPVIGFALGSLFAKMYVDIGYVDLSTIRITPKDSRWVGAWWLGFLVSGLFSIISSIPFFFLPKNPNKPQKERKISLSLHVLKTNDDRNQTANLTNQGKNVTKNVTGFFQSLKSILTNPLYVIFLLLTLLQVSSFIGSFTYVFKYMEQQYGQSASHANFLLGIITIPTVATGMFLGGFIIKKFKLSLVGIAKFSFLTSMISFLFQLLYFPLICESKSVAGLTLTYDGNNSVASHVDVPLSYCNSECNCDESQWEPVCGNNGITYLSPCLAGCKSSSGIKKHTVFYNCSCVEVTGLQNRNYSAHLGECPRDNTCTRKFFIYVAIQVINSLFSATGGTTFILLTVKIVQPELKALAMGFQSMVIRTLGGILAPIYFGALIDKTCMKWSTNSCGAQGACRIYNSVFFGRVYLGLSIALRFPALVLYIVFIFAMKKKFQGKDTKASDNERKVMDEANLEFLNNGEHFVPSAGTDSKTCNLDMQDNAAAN
Procedure: A431 cells transfected with the empty vector were used as a negative control. All cell lines were cultured in Dulbecco's modified eagle medium supplemented with 10% fetal bovine serum, 2 mM L-glutamine, 100 units/mL penicillin and 100 µg/mL streptomycin. […] On the day of the experiment, growth medium was aspired and cells were washed with pre-warmed transport buffer (Hank's balanced salt solution supplemented with 10 mM N-2-hydroxyethylpiperazine-N-2-ethane sulfonic acid). […] Then the drug solutions were removed and cells were washed with pre-warmed transport buffer. […] For time dependency experiments, pre-warmed transport buffer was added and cells were incubated for 30 min. […] In all experiments, cell count was determined on separate 24-well tissue culture plates before or after each experiment. […] Each inhibition experiment was performed 2 times with 3 technical replicates each and radioactivity in cells was corrected for radioactive decay, normalized to 10^6 cells and expressed as percent of vector control (% control). The time dependency experiment was performed once with 3 technical replicates and radioactivity in cells was corrected for radioactive decay and expressed as percent of applied dose per 10^6 cells (%AD/10^6 cells). The concentration dependency experiment was performed once with 3 technical replicates and radioactivity in cells was corrected for radioactive decay. […]

[1] = cited from earlier work
[2] = test system: breast cancer resistance protein (BCRP/ABCG2); design: method as in PMID 20304939, PMID 21088257; details: cited from earlier work
OATP1B1 [3] = details: read-out: IC50 for inhibition of OATP1B1; cited from earlier work
OATP1B3 = details: cited from earlier work
OCT1 (SLC22A1) = test system: OCT1 (SLC22A1); design: method as in PMID 21088257; details: cited from earlier work
OATP1B1 [4] = details: cited from earlier work
MRP4 = test system: MRP4; design: method as in PMID 21088257; details: cited from earlier work
[5] = Plasma pharmacokinetics of unlabeled erlotinib after 300 mg oral dose (HPLC-UV); type: in vivo, human
Procedure: One female and five male healthy volunteers (mean age: 27 ± 6 years, mean weight: 79 ± 7 kg) were enrolled in the study. […] Radioactivity in the upper abdominal region was measured over 90 min by employing a consecutive frame sequence of 1 × 15, 3 × 5, 3 × 10, 2 × 30, 3 × 60, 2 × 150, and 16 × 300 sec. […] For both PET scans, subjects were asked to fast for at least 6 h before radiotracer injection. Approximately 3 h before start of the second PET scan, an oral dose of 300 mg erlotinib (Tarceva, Roche Pharma, Nutley, NJ; two 150‐mg tablets) was administered. […] Blood samples were centrifuged to obtain plasma, which was kept at −80°C until analysis of erlotinib concentrations.
Aliquots of blood and plasma were measured for radioactivity in a gamma‐counter, which was cross‐calibrated with the PET camera. […] The concentration of unlabeled erlotinib in plasma was determined by high‐performance liquid chromatography with ultraviolet detection (Supplementary Methods). Pharmacokinetic parameters of erlotinib in plasma were determined with the Kinetica 2000 software package, v. 3.0 (InnaPhase).
The concentration of unlabeled erlotinib in plasma was determined by high-performance liquid chromatography (HPLC) using a Dionex UltiMate 3000 system (Dionex Corp., Sunnyvale, USA) with ultraviolet (UV) detection at 331 nm. After the addition of 600 µL ice-cold methanol to 200 µL of plasma, the samples were centrifuged (13,000 g for 5 min) and 80 µL of clear supernatant was injected onto a Hypersil BDS-C18 column (5 µm, 250 x 4.6 mm I.D., Thermo Fisher Scientific, Inc, Waltham, USA), preceded by a Hypersil BDS-C18 pre-column (5 µm, 10 x 4.6 mm I.D.) and kept at 40°C. The mobile phase consisted of a continuous gradient mixed from aqueous ammonium acetate buffer (10 mM, pH = 5.0) (solvent A) and acetonitrile (solvent B) at a flow rate of 1.0 mL/min.

[6] = 3 h after oral dosing, individual subjects
[7] = 4 h after oral dosing, individual subjects
[8] = individual subjects, oral 300 mg

In the case of `C#Cc1cccc(Nc2ncnc3cc(OCCOC)c(OCCOC)cc23)c1` [erlotinib], the “Michaelis constant (K m) of the saturable component of OATP2B1‐specific uptake” value (OATP2B1 (SLCO2B1); 7.5 min, erlotinib 0.05–2.05 μM, ± standard error) is reported as 0.32 µM, the “effect on [^11C]erlotinib uptake in OATP2B1 overexpressing cells” value (OATP2B1 (SLCO2B1); erlotinib 1 μM, cyclosporine A 10 μM, rifampicin 100 μM, 5 min) is reported as “significantly decreased” and the “effect on [^11C]erlotinib uptake in OATP1B3 overexpressing cells” value (OATP1B3 (SLCO1B3)) is reported as “no effect”. The logP [1] was 4.19, the “substrate of BCRP” value [2] was “substrate” and the IC50 (OATP1B1 [3]) was 104 µM. The “transport by OATP1B3” value (OATP1B3) was “not to be transported”, the “substrate of OCT1” value (OCT1 (SLC22A1)) was “not a substrate” and the “transport by OATP1B1” value (OATP1B1 [4]) was “not to be transported”. For the same molecule, the “transport by MRP4” value (MRP4) was “not to be transported”, the “CPET, plasma concentration at time of the PET scan” value [5, 6] was 3.30 µM and 4.12 µM and 4.73 µM and 4.91 µM and 2.66 µM and 4.61 µM and the “CPET,unbound” value [5, 6] was 0.12 µM and 0.20 µM and 0.10, 0.10 µM and 0.28 µM. For the same molecule, the “CPET, plasma concentration at time of the PET scan” value [5, 7] was 3.33 µM and 4.50 µM and 4.74 µM and 5.63 µM and 2.71 µM and 4.92 µM, the “CPET,unbound” value [5, 7] was 0.13 µM and 0.23 µM and 0.10, 0.10 µM and 0.30 µM and the Cmax ([5]; both sexes, human, plasma, po, 300 mg, oral 300 mg, mean ± SD, read-out: Maximum plasma concentration (C max), mean) was 4.6 ± 1.3 µM. For the same molecule, the “AUC0-∞” value [5, 8] was 68.1 µM·h and 94.0 µM·h and 72.0 µM·h and 102.8 µM·h and 36.6 µM·h and 187.8 µM·h, the “T1/2, terminal elimination half-life” value [5, 8] was 14.1 h and 12.5 h and 9.2 h and 11.3 h and 5.4 h and 28.7 h and the Tmax [5, 8] was 2 h and 6 h and 4 h. For the same molecule, the Cmax ([5]; individual subjects, oral 300 mg, read-out: Cmax) was 3.51 µM and 5.03 µM and 4.74 µM and 6.43 µM and 2.83 µM and 4.92 µM, the “plasma concentration at the time of the PET scan” value ([5]; mean of values at 3 h and 4 h after oral intake of 300 mg) was 4.2 ± 1.0 µM and the “unbound plasma concentration at the time of the PET scan” value ([5]; mean, oral 300 mg) was 0.18 µM. For the same molecule, the “time of C max, median” value ([5]; oral 300 mg) was 5 h and the “time of C max, range” value ([5]; oral 300 mg) was 2 to 6 h.
